For data set [1] the following is noted: lipid II of VanA or VanB positive strains; cited from earlier work.
Data set [2] has as its system conditionally immortalized proximal tubule epithelial cells (ciPTECs) overexpressing OAT-1. Description: ciPTEC cell viability assay. Type of data set: cell-based, human. The note with it: 24 h, relative mitochondrial activity (PrestoBlue).

Each structure is given as a SMILES string.

As usually defined, the viability is a per cent measure of how many cells are alive, often set against a control.

On to `CN[C@H](CC(C)C)C(=O)N[C@H]1C(=O)N[C@@H](CC(N)=O)C(=O)N[C@H]2C(=O)N[C@H]3C(=O)N[C@H](C(=O)N[C@H](C(=O)O)c4cc(O)cc(O)c4-c4cc3ccc4O)[C@H](O)c3ccc(c(Cl)c3)Oc3cc2cc(c3O[C@@H]2O[C@H](CO)[C@@H](O)[C@H](O)[C@H]2O[C@H]2C[C@](C)(N)[C@H](O)[C@H](C)O2)Oc2ccc(cc2Cl)[C@H]1O` [Vancomycin], for which the “fold reduction in binding affinity on mutation of D-Ala-D-Ala to D-Ala-D-Lac” value in data set [1] was over 1000 fold. In addition, the “viability at a concentration of 1 mM” value in data set [2] is over 50%.

The values are drawn from article PMC8438664 (ACS Infectious Diseases, 2021).
